Laboratory results as given in the supplement of paper PMC10307832.

What was measured:
Assay in all cases: relative viability (nuclei count vs DMSO), 5 days (fraction); higher = more cells survive
[1] = test system: A-427
In short: (§1)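 Cells from lung cancer lines were seeded into 1536-well plates and, one day later, dosed by pin tool. Treatments were either a single drug or a fixed dose of an anchor drug with five library-drug doses (not always all listed) in √10 steps. After 5 days, nuclei were stained in a one-step fixation (final 0.05% Triton X-100, 1% formaldehyde, 1 ug/ml Hoechst) and counted on 4× images, and relative viability is the treated-to-vehicle nuclei ratio, as the median of duplicate plates.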

[2] = test system: ABC-1
In short: as §1

[3] = test system: EMC-BAC-2
In short: as §1

[4] = test system: HARA
In short: as §1

[5] = test system: HOP-62
In short: as §1

[6] = test system: LK-2
In short: as §1

[7] = test system: LXF-289
In short: as §1

[8] = test system: NCI-H1792
In short: as §1

[9] = test system: NCI-H1944
In short: as §1

[10] = test system: NCI-H1993
In short: as §1

[11] = test system: NCI-H2009
In short: as §1

[12] = test system: NCI-H2170
In short: as §1

[13] = test system: NCI-H2228
In short: as §1

[14] = test system: NCI-H3122
In short: as §1

[15] = test system: NCI-H322M
In short: as §1

[16] = test system: NCI-H522
In short: as §1

[17] = test system: NCI-H596
In short: as §1

[18] = test system: NCI-H727
In short: as §1

[19] = test system: PC-3 [JPC-3]
In short: as §1

[20] = test system: SK-MES-1
In short: as §1

[21] = test system: SW 1573
In short: as §1

[22] = test system: SW 900
In short: as §1

O=c1cc(-c2cccc3c2Sc2ccccc2S3)oc(N2CCOCC2)c1 + CCNC(=O)c1noc(-c2cc(C(C)C)c(O)cc2O)c1-c1ccc(CN2CCOCC2)cc1 [Luminespib] (partner 0.01 µM)
relative viability ([1]; first compound 0.08 µM): 0.92 | relative viability ([1]; first compound 0.253 µM): 1.18 | relative viability ([1]; first compound 0.8 µM): 1.01 | relative viability ([1]; first compound 2.53 µM): 0.842 | relative viability ([1]; first compound 8 µM): 1.09 | relative viability ([2]; first compound 0.08 µM): 0.535 | relative viability ([2]; first compound 0.253 µM): 0.275 | relative viability ([2]; first compound 0.8 µM): 0.91 | relative viability ([2]; first compound 2.53 µM): 0.529 | relative viability ([2]; first compound 8 µM): 0.532 | relative viability ([3]; first compound 0.08 µM): 1.16 | relative viability ([3]; first compound 0.253 µM): 1.31 | relative viability ([3]; first compound 0.8 µM): 1.13 | relative viability ([3]; first compound 2.53 µM): 1.18 | relative viability ([3]; first compound 8 µM): 1.27 | relative viability ([4]; first compound 0.08 µM): 0.708 | relative viability ([4]; first compound 0.253 µM): 0.808 | relative viability ([4]; first compound 0.8 µM): 0.822 | relative viability ([4]; first compound 2.53 µM): 0.576 | relative viability ([4]; first compound 8 µM): 0.834 | relative viability ([5]; first compound 0.08 µM): 1.06 | relative viability ([5]; first compound 0.253 µM): 1.04 | relative viability ([5]; first compound 0.8 µM): 1.03 | relative viability ([5]; first compound 2.53 µM): 0.983 | relative viability ([5]; first compound 8 µM): 1.02 | relative viability ([6]; first compound 0.08 µM): 0.184 | relative viability ([6]; first compound 0.253 µM): 0.184 | relative viability ([6]; first compound 0.8 µM): 0.151 | relative viability ([6]; first compound 2.53 µM): 0.22 | relative viability ([6]; first compound 8 µM): 0.176 | relative viability ([7]; first compound 0.08 µM): 0.607 | relative viability ([7]; first compound 0.253 µM): 0.764 | relative viability ([7]; first compound 0.8 µM): 0.636 | relative viability ([7]; first compound 2.53 µM): 0.69 | relative viability ([7]; first compound 8 µM): 0.765 | relative viability ([8]; first compound 0.08 µM): 0.362 | relative viability ([8]; first compound 0.253 µM): 0.686 | relative viability ([8]; first compound 0.8 µM): 0.329 | relative viability ([8]; first compound 2.53 µM): 0.424 | relative viability ([8]; first compound 8 µM): 0.328 | relative viability ([9]; first compound 0.08 µM): 0.678 | relative viability ([9]; first compound 0.253 µM): 0.746 | relative viability ([9]; first compound 0.8 µM): 0.72 | relative viability ([9]; first compound 2.53 µM): 0.684 | relative viability ([9]; first compound 8 µM): 0.758 | relative viability ([10]; first compound 0.08 µM): 0.628 | relative viability ([10]; first compound 0.253 µM): 0.934 | relative viability ([10]; first compound 0.8 µM): 0.778 | relative viability ([10]; first compound 2.53 µM): 0.724 | relative viability ([10]; first compound 8 µM): 0.9 | relative viability ([11]; first compound 0.08 µM): 1.07 | relative viability ([11]; first compound 0.253 µM): 1.1 | relative viability ([11]; first compound 0.8 µM): 1.01 | relative viability ([11]; first compound 2.53 µM): 0.939 | relative viability ([11]; first compound 8 µM): 1 | relative viability ([12]; first compound 0.08 µM): 0.839 | relative viability ([12]; first compound 0.253 µM): 0.931 | relative viability ([12]; first compound 0.8 µM): 0.903 | relative viability ([12]; first compound 2.53 µM): 0.63 | relative viability ([12]; first compound 8 µM): 0.533 | relative viability ([13]; first compound 0.08 µM): 0.139 | relative viability ([13]; first compound 0.253 µM): 0.106 | relative viability ([13]; first compound 0.8 µM): 0.129 | relative viability ([13]; first compound 2.53 µM): 0.146 | relative viability ([13]; first compound 8 µM): 0.143 | relative viability ([14]; first compound 0.08 µM): 0.109 | relative viability ([14]; first compound 0.253 µM): 0.102 | relative viability ([14]; first compound 0.8 µM): 0.111 | relative viability ([14]; first compound 2.53 µM): 0.0685 | relative viability ([14]; first compound 8 µM): 0.106 | relative viability ([15]; first compound 0.08 µM): 0.711 | relative viability ([15]; first compound 0.253 µM): 0.824 | relative viability ([15]; first compound 0.8 µM): 0.823 | relative viability ([15]; first compound 2.53 µM): 0.769 | relative viability ([15]; first compound 8 µM): 0.849 | relative viability ([16]; first compound 0.08 µM): 0.999 | relative viability ([16]; first compound 0.253 µM): 1.03 | relative viability ([16]; first compound 0.8 µM): 1.21 | relative viability ([16]; first compound 2.53 µM): 1.13 | relative viability ([16]; first compound 8 µM): 1.08 | relative viability ([17]; first compound 0.08 µM): 1.06 | relative viability ([17]; first compound 0.253 µM): 0.957 | relative viability ([17]; first compound 0.8 µM): 0.763 | relative viability ([17]; first compound 2.53 µM): 0.891 | relative viability ([17]; first compound 8 µM): 0.852 | relative viability ([18]; first compound 0.08 µM): 0.289 | relative viability ([18]; first compound 0.253 µM): 0.449 | relative viability ([18]; first compound 0.8 µM): 0.307 | relative viability ([18]; first compound 2.53 µM): 0.536 | relative viability ([18]; first compound 8 µM): 0.382 | relative viability ([19]; first compound 0.08 µM): 0.685 | relative viability ([19]; first compound 0.253 µM): 0.765 | relative viability ([19]; first compound 0.8 µM): 0.862 | relative viability ([19]; first compound 2.53 µM): 0.687 | relative viability ([19]; first compound 8 µM): 0.493 | relative viability ([20]; first compound 0.08 µM): 0.775 | relative viability ([20]; first compound 0.253 µM): 0.748 | relative viability ([20]; first compound 0.8 µM): 0.734 | relative viability ([20]; first compound 2.53 µM): 0.522 | relative viability ([20]; first compound 8 µM): 0.505 | relative viability ([21]; first compound 0.08 µM): 0.213 | relative viability ([21]; first compound 0.253 µM): 0.18 | relative viability ([21]; first compound 0.8 µM): 0.495 | relative viability ([21]; first compound 2.53 µM): 0.194 | relative viability ([21]; first compound 8 µM): 0.237 | relative viability ([22]; first compound 0.08 µM): 0.198 | relative viability ([22]; first compound 0.253 µM): 0.187 | relative viability ([22]; first compound 0.8 µM): 0.166 | relative viability ([22]; first compound 2.53 µM): 0.149 | relative viability ([22]; first compound 8 µM): 0.15
